Experimental data as given in PubChem BioAssay AID248 (DTP/NCI, 2004).
Values joined by “and” are separate entries in the source; they are usually repeats but may differ in a detail not shown here. Equal values may be shown once. Toxic doses and inconclusive results are not listed. Rule as the data show it: active = T/C of 150% or more; inactive = T/C below 125%.

System: L1210 leukemia ip in BDF1 mice, survival T/C
Experiment: NCI In Vivo Anticancer Drug Screen. Data for tumor model L1210 Leukemia (intraperitoneal) in B6D2F1 (BDF1) mice
Conditions: endpoint: mean survival time, higher = longer survival
How it was run: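 Mice bearing the transplanted tumor received compound or vehicle. Survival of the treated group was divided by that of the vehicle-treated control group to give the ratio.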

[1] = dose: 100.0 mg/kg/injection, schedule: Q04DX002 (ip), vehicle: Klucel (hydroxypropylcellulose) (HPC)
[2] = dose: 200.0 mg/kg/injection, schedule: Q04DX002 (ip), vehicle: Klucel (hydroxypropylcellulose) (HPC)
[3] = dose: 100.0 mg/kg/injection, schedule: Q01DX001 (ip), vehicle: saline
[4] = dose: 200.0 mg/kg/injection, schedule: Q01DX001 (ip), vehicle: saline
[5] = dose: 400.0 mg/kg/injection, schedule: Q01DX001 (ip), vehicle: saline
[6] = dose: 50.0 mg/kg/injection, schedule: Q01DX009 (ip), vehicle: saline with Tween-80
[7] = dose: 100.0 mg/kg/injection, schedule: Q04DX003 (ip), vehicle: Klucel (hydroxypropylcellulose) (HPC)
[8] = dose: 200.0 mg/kg/injection, schedule: Q04DX003 (ip), vehicle: Klucel (hydroxypropylcellulose) (HPC)
[9] = dose: 400.0 mg/kg/injection, schedule: Q04DX003 (ip), vehicle: Klucel (hydroxypropylcellulose) (HPC)
[10] = dose: 100.0 mg/kg/injection, schedule: Q01DX009 (ip), vehicle: saline with Tween-80
[11] = dose: 200.0 mg/kg/injection, schedule: Q01DX009 (ip), vehicle: saline with Tween-80
[12] = dose: 400.0 mg/kg/injection, schedule: Q01DX009 (ip), vehicle: saline with Tween-80

Measured: T/C

O=C1C(=O)c2ccccc2C(O)=C1C(C1=C(O)c2ccccc2C(=O)C1=O)c1ccc(Cl)cc1Cl
inactive: dose: 75.0 mg/kg/injection, schedule: Q01DX001 (ip), vehicle: other 91 % of control | dose: 150.0 mg/kg/injection, schedule: Q01DX001 (ip), vehicle: other 91 % of control | dose: 300.0 mg/kg/injection, schedule: Q01DX001 (ip), vehicle: other 107 % of control

CC1=C2CCC(C)C23C2C(=O)OC(=O)C2C1C1C(=O)OC(=O)C13 (stereo not drawn)
inactive: dose: 12.5 mg/kg/injection, schedule: Q01DX009 (ip), vehicle: saline 107 % of control | dose: 25.0 mg/kg/injection, schedule: Q01DX009 (ip), vehicle: saline 102 % of control | dose: 50.0 mg/kg/injection, schedule: Q01DX009 (ip), vehicle: saline 103 % of control

CNc1ccccc1C(=O)N/N=C/Cc1ccccc1
inactive: [1] 103 % of control | [2] 92 % of control | dose: 400.0 mg/kg/injection, schedule: Q04DX002 (ip), vehicle: Klucel (hydroxypropylcellulose) (HPC) 106 % of control

O=C1OC(c2ccccc2)=C/C1=C\c1[nH]c(=S)[nH]c(=O)c1Cc1ccc(Cl)cc1
inactive: dose: 100.0 mg/kg/injection, schedule: Q01DX001 (ip), vehicle: saline with Tween-80 102 % of control | dose: 200.0 mg/kg/injection, schedule: Q01DX001 (ip), vehicle: saline with Tween-80 89 % of control | dose: 400.0 mg/kg/injection, schedule: Q01DX001 (ip), vehicle: saline with Tween-80 90 % of control

O=N/C=C/C(=N/Nc1ccc(C(=O)O)cc1)[N+](=O)[O-]
inactive: [3] 101 % of control | [4] 93 % of control | [5] 93 % of control

O=S(=O)(N=S(CCCl)CCCl)c1ccccc1
inactive: [1] 111 % of control | [2] 111 % of control

c1ccc([C@H]2O[C@@H]2c2ccccc2)cc1
inactive: dose: 12.5 mg/kg/injection, schedule: Q01DX009 (ip), vehicle: saline with Tween-80 91 % of control | dose: 12.5 mg/kg/injection, schedule: Q04DX003 (ip), vehicle: saline with Tween-80 96 % of control | dose: 25.0 mg/kg/injection, schedule: Q01DX009 (ip), vehicle: saline with Tween-80 96 % of control | dose: 25.0 mg/kg/injection, schedule: Q04DX003 (ip), vehicle: saline with Tween-80 93 % of control | [6] 94 % of control | dose: 50.0 mg/kg/injection, schedule: Q04DX003 (ip), vehicle: saline with Tween-80 96 % of control | dose: 100.0 mg/kg/injection, schedule: Q01DX001 (ip), vehicle: Klucel (hydroxypropylcellulose) (HPC) 97 % of control | [7] 92 % of control | dose: 200.0 mg/kg/injection, schedule: Q01DX001 (ip), vehicle: Klucel (hydroxypropylcellulose) (HPC) 101 % of control | [8] 101 % of control | dose: 400.0 mg/kg/injection, schedule: Q01DX001 (ip), vehicle: Klucel (hydroxypropylcellulose) (HPC) 103 % of control | [9] 97 % of control

COc1ccc(C(=O)NC(=S)Nc2ccc(O)cc2)cc1
inactive: [10] 97 % of control and 104 % of control | dose: 100.0 mg/kg/injection, schedule: Q04DX002 (ip), vehicle: saline with Tween-80 98 % of control | dose: 100.0 mg/kg/injection, schedule: Q04DX003 (ip), vehicle: saline with Tween-80 99 % of control | [11] 108 % of control and 109 % of control | dose: 200.0 mg/kg/injection, schedule: Q04DX002 (ip), vehicle: saline with Tween-80 104 % of control | dose: 200.0 mg/kg/injection, schedule: Q04DX003 (ip), vehicle: saline with Tween-80 94 % of control | [12] 98 % of control and 101 % of control | dose: 400.0 mg/kg/injection, schedule: Q04DX002 (ip), vehicle: saline with Tween-80 95 % of control | dose: 400.0 mg/kg/injection, schedule: Q04DX003 (ip), vehicle: saline with Tween-80 96 % of control

CN(C)CCOC(=O)c1ccccc1CCl
inactive: dose: 10.0 mg/kg/injection, schedule: Q01DX009 (ip), vehicle: saline 101 % of control | dose: 20.0 mg/kg/injection, schedule: Q01DX009 (ip), vehicle: saline 98 % of control | dose: 40.0 mg/kg/injection, schedule: Q01DX009 (ip), vehicle: saline 98 % of control

CCOC(=O)OC1C(OC)OC2COC(c3ccccc3)OC2C1OC(=O)OCC (stereo not drawn)
inactive: dose: 100.0 mg/kg/injection, schedule: Q04DX002 (ip), vehicle: other 103 % of control | dose: 200.0 mg/kg/injection, schedule: Q04DX002 (ip), vehicle: other 97 % of control | dose: 400.0 mg/kg/injection, schedule: Q04DX002 (ip), vehicle: other 100 % of control

CC(O)C(O)C(O)CO (stereo not drawn)
inactive: [3] 96 % of control | [4] 111 % of control | [5] 94 % of control

COc1cc2c(cc1O)/C(=N/O)CCCC2
inactive: [6] 102 % of control | [10] 102 % of control | [11] 106 % of control | [12] 104 % of control

CCC(C)OC(=O)Nc1cccc(O)c1 (stereo not drawn)
inactive: [10] 91 % of control | [11] 89 % of control | [12] 90 % of control

CC(=O)OCC1OC(N2C(=O)NC(=O)C3C4OC(=O)OC4C32)C(OC(C)=O)C1OC(C)=O (stereo not drawn)
inactive: dose: 25.0 mg/kg/injection, schedule: Q01DX005 (ip), vehicle: other 108 % of control | dose: 50.0 mg/kg/injection, schedule: Q01DX005 (ip), vehicle: other 100 % of control | dose: 100.0 mg/kg/injection, schedule: Q01DX005 (ip), vehicle: other 106 % of control | dose: 200.0 mg/kg/injection, schedule: Q01DX005 (ip), vehicle: other 106 % of control | dose: 400.0 mg/kg/injection, schedule: Q01DX005 (ip), vehicle: other 108 % of control

Cc1ccc2cc(O)ccc2c1
inactive: [3] 91 % of control | dose: 100.0 mg/kg/injection, schedule: Q04DX003 (ip), vehicle: acetone 90 % of control | [4] 96 % of control | dose: 200.0 mg/kg/injection, schedule: Q04DX003 (ip), vehicle: acetone 90 % of control | [5] 92 % of control

O=C(C#CC(=O)c1ccccc1)c1ccccc1
inactive: dose: 20.0 mg/kg/injection, schedule: Q04DX003 (ip), vehicle: gum acacia 95 % of control | dose: 40.0 mg/kg/injection, schedule: Q04DX003 (ip), vehicle: gum acacia 101 % of control | dose: 80.0 mg/kg/injection, schedule: Q04DX003 (ip), vehicle: gum acacia 100 % of control

Cc1cc(S(=O)(=O)F)ccc1NC(=O)NCc1ccc(N2C(N)=NC(N)=NC2(C)C)cc1
inactive: [7] 108 % of control | [8] 100 % of control | [9] 106 % of control

COc1cc(/C=C\C(=O)O)cc(Cl)c1O
inactive: dose: 50.0 mg/kg/injection, schedule: Q01DX009 (ip), vehicle: saline + alcohol 94 % of control | dose: 100.0 mg/kg/injection, schedule: Q01DX009 (ip), vehicle: saline + alcohol 101 % of control | dose: 200.0 mg/kg/injection, schedule: Q01DX009 (ip), vehicle: saline + alcohol 105 % of control

CC(=O)OCC1CCC1
inactive: [3] 93 % of control | dose: 100.0 mg/kg/injection, schedule: Q04DX002 (ip), vehicle: saline 105 % of control | [4] 91 % of control | dose: 200.0 mg/kg/injection, schedule: Q04DX002 (ip), vehicle: saline 118 % of control | [5] 90 % of control | dose: 400.0 mg/kg/injection, schedule: Q04DX002 (ip), vehicle: saline 96 % of control

Cc1cccc(C(=O)O)n1
inactive: dose: 100.0 mg/kg/injection, schedule: Q01DX009 (ip), vehicle: saline 103 % of control | dose: 100.0 mg/kg/injection, schedule: Q04DX003 (ip), vehicle: saline 104 % of control | dose: 200.0 mg/kg/injection, schedule: Q01DX009 (ip), vehicle: saline 113 % of control | dose: 200.0 mg/kg/injection, schedule: Q04DX003 (ip), vehicle: saline 101 % of control | dose: 400.0 mg/kg/injection, schedule: Q01DX009 (ip), vehicle: saline 93 % of control | dose: 400.0 mg/kg/injection, schedule: Q04DX003 (ip), vehicle: saline 95 % of control

CCCCNC(=O)Nc1ccc(O)c(C(=O)O)c1
inactive: dose: 25.0 mg/kg/injection, schedule: Q01DX009 (ip), vehicle: Klucel (hydroxypropylcellulose) (HPC) 110 % of control | dose: 50.0 mg/kg/injection, schedule: Q01DX009 (ip), vehicle: Klucel (hydroxypropylcellulose) (HPC) 93 % of control | dose: 100.0 mg/kg/injection, schedule: Q01DX009 (ip), vehicle: Klucel (hydroxypropylcellulose) (HPC) 100 % of control
